In patent publication US6706698B2, “α-Substituted β-aminoethyl phosphonate derivatives” (Ilex Products, Inc., priority 2000, dated 2004):
Blank lines part the entries; values can stand above or below the compound they belong to.

Legend:
apo (a) = apo (a) secretion in primary cultures of Cynomolgus hepatocytes (ELISA); format: cell-based, Cynomolgus monkey; conditions: Macaca fascicularis, Hepatocyte, 6-24 hours, vs ethanol control, read-out: change in apo (a) secretion in culture medium, percentage of control
Procedure: The compounds of formula (I) were assayed for being able to effectively lower the production of apo (a) in primary cultures of Cynomolgus hepatocytes.
Hepatocytes were isolated from livers of male adult Cynomolgus monkeys by the two-step collagenase perfusion method according to C. Guguen-Guillouzo and A. Guillouzo “Methods for preparation of adult and fetal hepatocytes” p.1-12 in “Isolated and Cultured Hepatocytes”, les editions Inserm Paris and John Libbey Eurotext London (1986).
The viability of cells was determined by Trypan blue staining. The cells were then seeded at a density of 1.5-2.105 viable cells per 2 cm^2 in 24 well tissue culture plates in a volume of 500 μl per well of Williams E tissue culture medium containing 10% fetal calf serum. Cells were incubated for 6-24 hours at 37° C. in a CO2 incubator (5% CO2) in the presence of 20 μM of the test compounds dissolved in ethanol. Four wells were used for each compound. Nicotinic acid and steroid hormones were used as references to validate the assay system since they are known to decrease apo (a) in man. Control cells were incubated in the presence of ethanol only.
The amount of apo (a) secreted in culture medium was assayed directly by ELISA using a commercially available kit. Changes in apo (a) concentration in culture medium are given as the percentage of value measured for the control plates.

SMILES: COc1cc(C(CNc2cccnc2)P(=O)(OC(C)C)OC(C)C)cc(OC)c1O (stereo not drawn) [Compound 33, diisopropyl α-(3,5-dimethoxy-4-hydroxyphenyl)-β-[N-(3-pyridyl)-amino]-ethylphosphonate]
inhibition at 20 µM (apo (a)): 19 to 55%
melting point: 156 to 158 °C

SMILES: CCOP(=O)(OCC)C(CNc1ccon1)c1cc(C)c(O)c(OC)c1 (stereo not drawn) [Compound 87, diethyl α-(4-hydroxy-3-methoxy-5-methylphenyl)-β-[N-(3-isoxazolyl)-amino]-ethylphosphonate]
inhibition at 20 µM (apo (a)): 19 to 55%

melting point: 152 to 154 °C
SMILES: CCOP(=O)(OCC)C(CNc1cccnc1)c1cc(OC)c(O)c(OC)c1 (stereo not shown)

SMILES: CCOP(=O)(OCC)C(CNc1cnccn1)c1cc(C)c(O)c(C)c1 (stereo not drawn) [Example 25, Diethyl α-(3,5-dimethyl-4-hydroxyphenyl)-β-[N-(pyrazinyl)-amino]-ethylphosphonate]
inhibition at 20 µM (apo (a)): 19 to 55%

SMILES: CCOP(=O)(OCC)C(CNc1nc2ccccc2s1)c1cc(C)c(O)c(OC)c1 (stereo not drawn) [Compound 81, diethyl α-(4-hydroxy-3-methoxy-5-methylphenyl)-β-[N-(2-benzothiazolyl)-amino]-ethylphosphonate]
inhibition at 20 µM (apo (a)): 19 to 55%

SMILES: CCOP(=O)(OCC)C(CNc1cnccn1)c1cc(OC)c(O)c(OC)c1 (stereo not drawn) [Compound 42, diethyl α-(3,5-dimethoxy-4-hydroxyphenyl)-β-[N-(pyrazinyl)-amino]-ethylphosphonate]
inhibition at 20 µM (apo (a)): 19 to 55%
melting point: 147 to 148 °C

SMILES: COc1cc(C(CNc2cnccn2)P(=O)(OC(C)C)OC(C)C)cc(OC)c1O (stereo not drawn) [Compound 43, diisopropyl α-(3,5-dimethoxy-4-hydroxyphenyl)-β-[N-(pyrazinyl)-amino]-ethylphosphonate]
inhibition at 20 µM (apo (a)): 19 to 55%
melting point: 169 to 171 °C

SMILES: CCOP(=O)(OCC)C(CNc1ncccn1)c1cc(C)c(O)c(OC)c1 (stereo not drawn) [Compound 53, diethyl α-(4-hydroxy-3-methoxy-5-methylphenyl)-β-[N-(2-pyrimidinyl)-amino]-ethylphosphonate]
inhibition at 20 µM (apo (a)): 19 to 55%
melting point: 133 to 136 °C

SMILES: CCOP(=O)(OCC)C(CNc1cnccn1)c1cc(C)c(O)c(C(C)(C)C)c1 (stereo not drawn) [Example 26, Diethyl α-(3-tert-butyl-4-hydroxy-5-methylphenyl)-β-[N-(pyrazinyl)-amino]-ethylphosphonate]
inhibition at 20 µM (apo (a)): 19 to 55%

SMILES: CCOP(=O)(OCC)C(CNc1cnccn1)c1cc(C)c(O)c(OC)c1 (stereo not drawn) [Compound 44, diethyl α-(4-hydroxy-3-methoxy-5-methylphenyl)-β-[N-(pyrazinyl)-amino]-ethylphosphonate]
inhibition at 20 µM (apo (a)): 19 to 55%

SMILES: COc1cc(C(CNc2cccnc2)P(=O)(OC(C)C)OC(C)C)cc(C)c1O (stereo not drawn) [Compound 35, diisopropyl α-(4-hydroxy-3-methoxy-5-methylphenyl)-β-[N-(3-pyridyl)amino]-ethylphosphonate]
inhibition at 20 µM (apo (a)): 19 to 55%

melting point: 85 to 87 °C
SMILES: CCOP(=O)(OCC)C(CNc1nccs1)c1cc(C)c(O)c(OC)c1 (stereo not shown)

SMILES: Cc1cc(C(CNc2cccnc2)P(=O)(OC(C)C)OC(C)C)cc(C)c1O (stereo not drawn) [Compound 47, diisopropyl α-(3,5-dimethyl-4-hydroxyphenyl)-β-[N-(3-pyridyl)-amino]-ethylphosphonate]
inhibition at 20 µM (apo (a)): 19 to 55%

SMILES: CCOc1cc(C(CNc2cccnc2)P(=O)(OCC)OCC)cc(C)c1O (stereo not drawn) [Compound 55, diethyl α-(3-ethoxy-4-hydroxy-5-methylphenyl)-β-[N-(3-pyridyl)-amino]-ethylphosphonate]
inhibition at 20 µM (apo (a)): 19 to 55%
melting point: 155 to 156 °C
